Measurements taken from US20240277698A1, “METHODS OF USING ALDOSTERONE SYNTHASE INHIBITORS” (CINCOR PHARMA, INC., priority 2021, published 2024).

Assay: MAD study: safety (adverse events, vital signs, ECG, laboratory values, body weight)
Format: in vivo, human
Experimental: Safety was assessed throughout the study based on AEs, physical examinations, weight measurements, electrocardiograms (ECGs), orthostatic vital sign assessments, and clinical laboratory evaluations. In order to thoroughly assess any potential effect of (R)-compound 1 on QT interval, continuous ECG recordings were also performed, starting approximately 1 hour before dosing, and continuing for approximately 24 hours after dosing on Days 1 and 10.
Safety is assessed throughout the study based on AEs, physical examinations, weight measurements, ECGs, vital sign (including orthostatic) assessments, and clinical laboratory evaluations. In order to thoroughly assess any potential effect of (R)-compound 1 on QT interval, continuous ECG recordings were also performed starting approximately 1 hour before dosing and continuing for approximately 24 hours after dosing on Days 1 and 10. If cardiodynamic analyses are undertaken, 12-lead ECGs will be extracted at predefined time points paired with PK samples.

[1] = 0.5 mg, normal salt diet, N = 9
[2] = 1.5 mg, normal salt diet, N = 9
[3] = 2.5 mg, normal salt diet, N = 6

## CCC(=O)N[C@@H]1CCCc2c(-c3ccc4c(c3)CCC(=O)N4C)cncc21 [(R)-Compound 1, (R)—N-(4-(1-methyl-2-oxo-1,2,3,4-tetrahydroquinolin-6-yl)-5,6,7,8-tetrahydroisoquinolin-8-yl)propionamide]
0.5 mg NS, N = 9
  Any TEAE, % of subjects: (11.1) %
  Any TEAE, number of subjects: 1
  Related TEAE, % of subjects: (11.1) %
  Related TEAE, number of subjects: 1
[1]
  Subjects with any AE: 1 (11.1) n (%)
  Subjects with any TEAE: 1 (11.1) n (%)
  Subjects with any TEAE by maximum severity: Mild: 1 (11.1) n (%)
  Subjects with any TEAE by maximum severity: Moderate: 0 (0.0) n (%)
  Subjects with any TEAE by maximum severity: Severe: 0 (0.0) n (%)
  Subjects with any TEAE leading to death: 0 (0.0) n (%)
  Subjects with any TEAE leading to discontinuation: 0 (0.0) n (%)
  Subjects with any study drug-related TEAE: 1 (11.1) n (%)
  Subjects with any study drug-related TEAE by maximum severity: Mild: 1 (11.1) n (%)
  Subjects with any study drug-related TEAE by maximum severity: Moderate: 0 (0.0) n (%)
  Subjects with any study drug-related TEAE by maximum severity: Severe: 0 (0.0) n (%)
  Subjects with any study drug-related TEAE leading to discontinuation: 0 (0.0) n (%)
  Subjects with any study drug-related treatment-emergent SAE: 0 (0.0) n (%)
  Subjects with any treatment-emergent SAE: 0 (0.0) n (%)
1.5 mg NS, N = 9
  Any TEAE, % of subjects: (11.1) %
  Any TEAE, number of subjects: 1
  Related TEAE, % of subjects: (0) %
  Related TEAE, number of subjects: 0
[2]
  Subjects with any AE: 1 (11.1) n (%)
  Subjects with any TEAE: 1 (11.1) n (%)
  Subjects with any TEAE by maximum severity: Mild: 1 (11.1) n (%)
  Subjects with any TEAE by maximum severity: Moderate: 0 (0.0) n (%)
  Subjects with any TEAE by maximum severity: Severe: 0 (0.0) n (%)
  Subjects with any TEAE leading to death: 0 (0.0) n (%)
  Subjects with any TEAE leading to discontinuation: 0 (0.0) n (%)
  Subjects with any study drug-related TEAE: 0 (0.0) n (%)
  Subjects with any study drug-related TEAE by maximum severity: Mild: 0 (0.0) n (%)
  Subjects with any study drug-related TEAE by maximum severity: Moderate: 0 (0.0) n (%)
  Subjects with any study drug-related TEAE by maximum severity: Severe: 0 (0.0) n (%)
  Subjects with any study drug-related TEAE leading to discontinuation: 0 (0.0) n (%)
  Subjects with any study drug-related treatment-emergent SAE: 0 (0.0) n (%)
  Subjects with any treatment-emergent SAE: 0 (0.0) n (%)
2.5 mg LS, N = 9
  Any TEAE, % of subjects: (33.3) %
  Any TEAE, number of subjects: 3
  Related TEAE, % of subjects: (22.2) %
  Related TEAE, number of subjects: 2
2.5 mg NS, N = 6
  Any TEAE, % of subjects: (50) %
  Any TEAE, number of subjects: 3
  Related TEAE, % of subjects: (33.3) %
  Related TEAE, number of subjects: 2
2.5 mg, low salt diet, N = 9
  Subjects with any AE: 3 (33.3) n (%)
  Subjects with any TEAE: 3 (33.3) n (%)
  Subjects with any TEAE by maximum severity: Mild: 3 (33.3) n (%)
  Subjects with any TEAE by maximum severity: Moderate: 0 (0.0) n (%)
  Subjects with any TEAE by maximum severity: Severe: 0 (0.0) n (%)
  Subjects with any TEAE leading to death: 0 (0.0) n (%)
  Subjects with any TEAE leading to discontinuation: 0 (0.0) n (%)
  Subjects with any study drug-related TEAE: 2 (22.2) n (%)
  Subjects with any study drug-related TEAE by maximum severity: Mild: 2 (22.2) n (%)
  Subjects with any study drug-related TEAE by maximum severity: Moderate: 0 (0.0) n (%)
  Subjects with any study drug-related TEAE by maximum severity: Severe: 0 (0.0) n (%)
  Subjects with any study drug-related TEAE leading to discontinuation: 0 (0.0) n (%)
  Subjects with any study drug-related treatment-emergent SAE: 0 (0.0) n (%)
  Subjects with any treatment-emergent SAE: 0 (0.0) n (%)
[3]
  Subjects with any AE: 3 (50.0) n (%)
  Subjects with any TEAE: 3 (50.0) n (%)
  Subjects with any TEAE by maximum severity: Mild: 3 (50.0) n (%)
  Subjects with any TEAE by maximum severity: Moderate: 0 (0.0) n (%)
  Subjects with any TEAE by maximum severity: Severe: 0 (0.0) n (%)
  Subjects with any TEAE leading to death: 0 (0.0) n (%)
  Subjects with any TEAE leading to discontinuation: 0 (0.0) n (%)
